The text below walks through data of PMC5581131, “The novel sphingosine-1-phosphate receptors antagonist AD2900 affects lymphocyte activation and inhibits T-cell entry into the lymph nodes” (Oncotarget, 2017).

Data set [1] has as its system IFN-γ. Briefly: IFN-γ secretion from activated PBMCs, ELISA. The format is cell-based, human. To be noted: 1-day pretreatment, 5th day of MLR. How it is done: Figure 1 AD2900 inhibits human lymphocyte proliferation in allogeneic activation (A, B) The levels of proliferative response of human peripheral blood lymphocytes (PBMCs) after 1-day pretreatment with different concentrations of AD2900, AD2750, YZ138, YZ158, and YZ297 (A) or AD2900, FTY720, and SEW2871 (B) were tested by human allogeneic mixed lymphocyte reaction (MLR) assay, followed by a [3H] thymidine incorporation analysis. (C) Apoptosis of AD2900-treated activated PBMCs was tested by AnnexinV-propidium iodide (PI) FACS analysis following 1-day AD2900 pretreatment and MLR. All the samples were compared to the untreated PBMC control. (D) IFN-γ secretion from activated PBMCs was tested by ELISA following a 1-day AD2900 pretreatment in MLR. On the 5th day of hMLR, supernatants were collected and assayed for the level of IFN-γ. (E) Jurkat cell viability after a 1-day treatment with different concentrations of AD2900, FTY720, and SEW2871 was tested by XTT viability assay. […]
Human PBLs were collected from human whole blood collected from healthy donors. […] For the thymidine incorporation assay, after 4 days of co-culture, cells were pulsed with ^3H-thymidine at 1 μCi (0.037MBq) per well (PerkinElmer, MA, USA) for 16 additional hours and then harvested onto glass-fiber filters. ^3H-thymidine incorporation was measured using Top Count. […]

On the set-up of data set [2]: method as in unpublished data. To be noted: previous studies; ref unpublished data; cited from earlier work.
For data set [3], the target named is S1P1 (Homo sapiens, UniProt P21453). As to the kind of experiment: S1P1 agonist test, S1P1 CRE-bla CHO cells. The format is cell-based. To be noted: S1P1 CRE-BLA CHO cell line. The procedure:
Since AD2900 is a sphingolipid analogue with properties that resemble those of S1P, we intended to examine its ability to interact with the S1P receptors. To delineate whether AD2900 can function as an agonistic or antagonistic compound to any of the S1P receptors, we used a high-throughput screening cell-based assay, employing cell lines stably transfected with human S1P receptors 1, 2, 3, 4, or 5 [37]. In this experiment, a compound with an IC50 or EC50 value ≤10 μM for a certain S1P receptor is considered active as an antagonist or an agonist, respectively. The results illustrate that AD2900 acts as an antagonist to all S1P receptors (Table 1, Supplementary Figure 3). […] No agonist activation was evident.
The S1P1 agonist test and S1P2, S1P3, S1P4, and S1P5 agonist and antagonist tests were conducted as previously described using S1P1 CRE-bla CHO cells, S1P2 CRE-bla CHO cells, S1P3 NFAT-bla CHO cells, Tango™ S1P4 (EDG6)-bla U-2 OS cells, and Tango™ S1P5 ([…])-bla U-2 OS cells. The S1P1 antagonist assay was carried out according to the manufacturer’s instructions using a Tango™ S1P1 (EDG1)-bla U-2 OS Cell-Based Assay (Invitrogen, NY, USA).

Some results are limits rather than exact numbers.

Sequence of S1P1 (P21453 whole entry): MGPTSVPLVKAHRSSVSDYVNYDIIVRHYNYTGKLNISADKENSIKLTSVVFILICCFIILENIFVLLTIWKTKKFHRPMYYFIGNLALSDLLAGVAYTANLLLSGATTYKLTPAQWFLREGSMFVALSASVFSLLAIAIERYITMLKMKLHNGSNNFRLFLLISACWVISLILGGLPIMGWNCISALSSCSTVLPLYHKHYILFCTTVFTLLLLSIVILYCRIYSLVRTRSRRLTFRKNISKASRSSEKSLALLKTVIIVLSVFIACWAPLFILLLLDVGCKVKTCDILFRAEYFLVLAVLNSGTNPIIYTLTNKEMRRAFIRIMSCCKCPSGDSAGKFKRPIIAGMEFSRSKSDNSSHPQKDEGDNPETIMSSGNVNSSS

In the case of `CCCCCCCCCCCCCCCCNC(CO)(CO)CO` [AD2900], the “IFN-γ concentrations in the supernatant” value in data set [1] is given as “reduced level”. Also, in data set [2], the “stable at room temperature” value is recorded as “at least 2 years”. For the same molecule, the EC50 in data set [3] is above 50 µM.
